Data from US20230219904A1 (SYNGENTA CROP PROTECTION AG, priority 2020, published 2023).

Legend:
Format in all cases: in vivo
Settings in all cases: applied at 125 g/ha, evaluated after 13 days
[1] = tested on: Ipomoea hederacea (IPOHE); assay: Post-emergence herbicidal glasshouse test (Table B1)
Description: (§1) Seeds of a variety of test species are sown in standard soil in pots (Lolium perenne (LOLPE), Amaranthus retoflexus (AMARE), Abutilon theophrasti (ABUTH), Setaria faberi (SETFA), Echinochloa crus-galh (ECHCG), Ipomoea hederacea (IPOHE)). After cultivation for one day (pre-emergence) or after 8 days cultivation (post-emergence) under controlled conditions in a glasshouse (at 24/16° C., day/night; 14 hours light; 65% humidity), the plants are sprayed with an aqueous spray solution derived from the formulation of the technical active ingredient in acetone/water (50:50) solution containing 0.5% Tween 20 (polyoxyethelyene sorbitan monolaurate, CAS RN 9005-64-5). Compounds are applied at 500 g/h unless otherwise indicated. The test plants are then grown in a glasshouse under controlled conditions in a glasshouse (at 24/16° C., day/night; 14 hours light; 65% humidity) and watered twice daily. After 13 days for pre and post-emergence, the test is evaluated for the percentage damage caused to the plant. The biological activities are shown in the following table on a five-point scale (5=80-100%; 4=60-79%; 3=40-59%; 2=20-39%; 1=0-19%).

[2] = tested on: Amaranthus retoflexus (AMARE); assay: as above
Description: as §1

Setaria faberi (SETFA) [3] = assay: as above
Description: as §1

[4] = tested on: Echinochloa crus-galh (ECHCG); assay: Pre-emergence herbicidal glasshouse test (Table B1)
Description: as §1

[5] = tested on: Ipomoea hederacea (IPOHE); assay: as above
Description: as §1

[6] = tested on: Amaranthus retoflexus (AMARE); assay: as above
Description: as §1

Setaria faberi (SETFA) [7] = assay: as above
Description: as §1

[8] = tested on: Abutilon theophrasti (ABUTH); assay: as above
Description: as §1

SMILES | POST Application IPOHE, percentage damage on five-point scale [1] | POST Application AMARE, percentage damage on five-point scale [2] | POST Application SETFA, percentage damage on five-point scale (Setaria faberi (SETFA) [3]) | PRE Application ECHCG, percentage damage on five-point scale [4] | PRE Application IPOHE, percentage damage on five-point scale [5] | PRE Application AMARE, percentage damage on five-point scale [6] | PRE Application SETFA, percentage damage on five-point scale (Setaria faberi (SETFA) [7]) | PRE Application ABUTH, percentage damage on five-point scale [8]
Cc1nc(C(=O)Nc2c(OC(F)F)ccc(C(=O)Nc3nnnn3C)c2Cl)cs1 [Compound 1.038] | 4 (4=60-79%) | 4 (4=60-79%) | 4 (4=60-79%) | 5 (5=80-100%) | 5 (5=80-100%) | 5 (5=80-100%) | 4 (4=60-79%) | 5 (5=80-100%)
Cn1nnnc1NC(=O)c1ccc(OC(F)F)c(NC(=O)c2cc(Cl)sc2Cl)c1Cl [Compound 1.041] | 3 (3=40-59%) | 3 (3=40-59%) | 3 (3=40-59%) | 3 (3=40-59%) | 2 (2=20-39%) | 2 (2=20-39%) | 2 (2=20-39%) | 5 (5=80-100%)
CC(C)OCC(=O)Nc1c(OC(F)(F)F)ccc(C(=O)Nc2nnnn2C)c1Cl [Compound 1.064] | 4 (4=60-79%) | 4 (4=60-79%) | 4 (4=60-79%) | 3 (3=40-59%) | 4 (4=60-79%) | 5 (5=80-100%) | 4 (4=60-79%) | 5 (5=80-100%)
CCOCC(=O)Nc1c(OC(F)(F)F)ccc(C(=O)Nc2nnnn2C)c1Cl [Compound 1.066] | 4 (4=60-79%) | 4 (4=60-79%) | 4 (4=60-79%) | 5 (5=80-100%) | 5 (5=80-100%) | 5 (5=80-100%) | 4 (4=60-79%) | 5 (5=80-100%)
CCn1nnnc1NC(=O)c1ccc(OC(F)(F)F)c(NC(=O)CC(F)(F)F)c1Cl [Compound 1.068] | 4 (4=60-79%) | 4 (4=60-79%) | 5 (5=80-100%) | 5 (5=80-100%) | 3 (3=40-59%) | 5 (5=80-100%) | 5 (5=80-100%) | 5 (5=80-100%)
CCn1nnnc1NC(=O)c1ccc(OC(F)F)c(NC(=O)c2cc(OC)ccn2)c1Cl [Compound 1.080] | 4 (4=60-79%) | 4 (4=60-79%) | 4 (4=60-79%) | 1 (1=0-19%) | 2 (2=20-39%) | 4 (4=60-79%) | 1 (1=0-19%) | 1 (1=0-19%)
Cn1nnnc1NC(=O)c1ccc(OC(F)F)c(NC(=O)c2ncccc2Cl)c1Cl [Compound 1.092] | 4 (4=60-79%) | 3 (3=40-59%) | 4 (4=60-79%) | – | 3 (3=40-59%) | 5 (5=80-100%) | 5 (5=80-100%) | 5 (5=80-100%)
